# Assay results published in ChEMBL document CHEMBL1201862, “PubChem BioAssay data set” (2004).
# Calls of active or inactive are those of the source.
# Legend:
# [1] = molecular target: T1, Protein RecA (Mycobacterium tuberculosis, UniProt P9WHJ3); assay: Fluorescence Cell-Free Homogeneous Dose Retest to Identify Inhibitors of RecA-Intein Splicing Activity. [Related pubchem assays (depositor defined):AID2097, AID2223, AID489010, AID492950]; assay type: functional
# T1 sequence (P9WHJ3 whole entry): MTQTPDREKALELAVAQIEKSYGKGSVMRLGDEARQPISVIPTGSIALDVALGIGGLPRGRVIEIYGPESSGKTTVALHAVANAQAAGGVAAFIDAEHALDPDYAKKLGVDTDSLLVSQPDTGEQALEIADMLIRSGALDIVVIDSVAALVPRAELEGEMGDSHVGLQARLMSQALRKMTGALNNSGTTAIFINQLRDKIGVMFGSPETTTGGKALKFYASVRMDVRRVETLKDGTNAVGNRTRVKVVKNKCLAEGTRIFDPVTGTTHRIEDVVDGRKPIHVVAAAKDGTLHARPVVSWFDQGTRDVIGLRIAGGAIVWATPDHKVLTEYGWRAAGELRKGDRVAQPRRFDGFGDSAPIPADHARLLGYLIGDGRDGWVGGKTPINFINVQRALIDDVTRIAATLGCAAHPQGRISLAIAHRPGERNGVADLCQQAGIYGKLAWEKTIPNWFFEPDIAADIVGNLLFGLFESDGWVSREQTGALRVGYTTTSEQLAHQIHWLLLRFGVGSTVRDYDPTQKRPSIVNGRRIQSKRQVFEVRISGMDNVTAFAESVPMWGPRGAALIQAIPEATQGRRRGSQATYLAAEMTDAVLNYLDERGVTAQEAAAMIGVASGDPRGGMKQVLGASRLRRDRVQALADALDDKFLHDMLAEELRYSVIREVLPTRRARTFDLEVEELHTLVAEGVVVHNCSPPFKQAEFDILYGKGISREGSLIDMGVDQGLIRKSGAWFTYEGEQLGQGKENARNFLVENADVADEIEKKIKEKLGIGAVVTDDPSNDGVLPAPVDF
# [2] = molecular target: G-protein coupled receptor 55 (Homo sapiens, UniProt Q9Y2T6); assay: GPR55 agonists via beta-arrestin recruitment, primary screen, imaging, U2OS cells, beta-arrestin-GFP redistribution (AID 1961); assay type: functional
# [3] = molecular target: T2, Replicative DNA helicase DnaB (Mycobacterium tuberculosis, UniProt P9WMR3); assay: DnaB intein splicing inhibitors, dose response, biochemical, cell-free fluorescence (AID 449749); assay type: functional
# T2 sequence (P9WMR3 whole entry): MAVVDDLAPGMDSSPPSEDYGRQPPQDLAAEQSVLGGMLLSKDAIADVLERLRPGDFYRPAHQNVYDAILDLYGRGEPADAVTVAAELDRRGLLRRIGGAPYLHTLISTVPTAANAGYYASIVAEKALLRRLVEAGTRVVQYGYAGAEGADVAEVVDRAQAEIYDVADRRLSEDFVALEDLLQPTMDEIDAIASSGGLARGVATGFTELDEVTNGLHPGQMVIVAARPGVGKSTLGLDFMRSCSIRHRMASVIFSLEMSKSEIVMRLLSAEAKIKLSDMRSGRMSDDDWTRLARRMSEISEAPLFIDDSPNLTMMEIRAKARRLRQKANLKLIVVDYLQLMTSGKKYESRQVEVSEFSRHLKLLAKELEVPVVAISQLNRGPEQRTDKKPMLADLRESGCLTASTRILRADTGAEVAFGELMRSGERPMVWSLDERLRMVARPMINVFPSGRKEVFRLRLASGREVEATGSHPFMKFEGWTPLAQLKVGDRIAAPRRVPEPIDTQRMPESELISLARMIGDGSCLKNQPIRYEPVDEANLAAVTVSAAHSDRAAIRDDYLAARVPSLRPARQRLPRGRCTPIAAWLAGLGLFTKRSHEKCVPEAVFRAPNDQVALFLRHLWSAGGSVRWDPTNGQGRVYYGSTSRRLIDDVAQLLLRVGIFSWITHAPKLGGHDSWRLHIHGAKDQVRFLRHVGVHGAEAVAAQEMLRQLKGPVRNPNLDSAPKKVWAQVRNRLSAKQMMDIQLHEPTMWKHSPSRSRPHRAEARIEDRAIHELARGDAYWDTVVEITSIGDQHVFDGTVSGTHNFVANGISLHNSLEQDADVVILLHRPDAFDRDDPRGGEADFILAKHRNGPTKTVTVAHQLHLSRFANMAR
# [4] = molecular target: UDP-galactopyranose mutase (Mycobacterium tuberculosis, UniProt P9WIQ1); assay: Inhibitors of Mycobacterium tuberculosis UDP-galactopyranose mutase (UGM) enzyme Measured in Biochemical System Using Plate Reader - 2105-02_Inhibitor_Dose_CherryPick_Activity. [Related pubchem assays (depositor defined):AID504439]
# [5] = molecular target: T3, Endoribonuclease toxin MazF (Escherichia coli K-12, UniProt P0AE70); assay: MazF toxin RNase activators, dose response, biochemical, fluorescence, single-stranded RNA substrate, uHTS hits (AID 588481); assay type: functional
# T3 sequence (P0AE70 whole entry): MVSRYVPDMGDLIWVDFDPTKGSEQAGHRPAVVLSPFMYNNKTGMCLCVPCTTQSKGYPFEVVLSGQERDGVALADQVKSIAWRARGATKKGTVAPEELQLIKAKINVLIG
# [6] = molecular target: Keap1/Nrf2 (Homo sapiens, UniProt Q14145); assay: Keap1-Nrf2 protein-protein interaction inhibitors, dose response, biochemical, fluorescence polarization, cherry-picked samples (AID 588683)
# [7] = molecular target: T3, Endoribonuclease toxin MazF; assay: fluorescent RNA oligo signal without MazF, dose response, counter-screen for MazEF activator project, biochemical, fluorescence, single-stranded RNase substrate (AID 588502); assay type: functional
# [8] = molecular target: T4, ORF 73 (Human herpesvirus 8, UniProt O40947); assay: inhibitors of C-LANA binding to LBS DNA, dose response, biochemical, fluorescence polarization, cherry-picked samples (AID 504725); set-up: species or system Human gammaherpesvirus 8;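 also: fluorescence polarization of a labeled DNA duplex reporting LANA DNA binding; potency is for inhibitors that block LANA binding to the DNA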
# T4 sequence (O40947 whole entry): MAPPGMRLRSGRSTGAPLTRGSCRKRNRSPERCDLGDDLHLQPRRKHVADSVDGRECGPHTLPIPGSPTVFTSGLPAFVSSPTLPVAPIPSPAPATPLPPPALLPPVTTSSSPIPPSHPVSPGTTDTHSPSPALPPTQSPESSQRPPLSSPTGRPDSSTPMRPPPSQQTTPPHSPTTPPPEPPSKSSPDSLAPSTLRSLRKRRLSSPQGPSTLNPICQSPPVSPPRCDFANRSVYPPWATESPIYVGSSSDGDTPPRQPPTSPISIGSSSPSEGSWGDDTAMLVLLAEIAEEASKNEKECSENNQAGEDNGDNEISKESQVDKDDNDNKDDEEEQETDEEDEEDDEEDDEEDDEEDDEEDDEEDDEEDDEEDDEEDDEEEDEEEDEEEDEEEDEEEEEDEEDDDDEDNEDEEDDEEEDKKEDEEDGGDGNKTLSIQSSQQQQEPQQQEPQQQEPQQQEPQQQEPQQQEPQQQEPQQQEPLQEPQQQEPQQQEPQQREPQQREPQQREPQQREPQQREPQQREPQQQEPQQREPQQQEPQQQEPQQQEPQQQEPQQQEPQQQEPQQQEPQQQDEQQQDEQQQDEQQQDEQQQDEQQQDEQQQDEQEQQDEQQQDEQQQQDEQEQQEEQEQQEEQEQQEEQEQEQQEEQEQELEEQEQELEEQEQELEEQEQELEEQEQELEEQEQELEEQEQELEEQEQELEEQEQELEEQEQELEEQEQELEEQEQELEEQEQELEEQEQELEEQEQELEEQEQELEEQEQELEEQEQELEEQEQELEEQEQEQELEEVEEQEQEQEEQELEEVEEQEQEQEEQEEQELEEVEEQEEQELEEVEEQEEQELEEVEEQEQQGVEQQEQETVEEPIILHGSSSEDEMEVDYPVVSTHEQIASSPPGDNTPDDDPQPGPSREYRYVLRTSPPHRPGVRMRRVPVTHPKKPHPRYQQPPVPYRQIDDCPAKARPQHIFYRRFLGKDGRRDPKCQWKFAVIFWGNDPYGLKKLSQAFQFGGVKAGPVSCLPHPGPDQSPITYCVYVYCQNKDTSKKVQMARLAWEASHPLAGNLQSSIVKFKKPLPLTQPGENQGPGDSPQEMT
# [9] = test system: Salmon testes DNA; assay: DNA intercalators displacing acridine orange, dose response, artefact control for KSHV LANA DNA-binding inhibitor project, biochemical, fluorescence polarization, cherry-picked samples, set 2 (AID 504727); set-up: species or system Salmonidae
# [10] = molecular target: Phosphoethanolamine/phosphocholine phosphatase (Homo sapiens, UniProt Q8TCT1); assay: SAR assay for compounds that inhibit PHOSPHO1. [Related pubchem assays (depositor defined):AID1545, AID1565, AID1574]
# [11] = molecular target: T5, Phosphomannomutase 2 (Homo sapiens, UniProt O15305); assay: Counter screen SAR assay for PMM2 inhibitors via a fluorescence intensity assay. [Related pubchem assays (depositor defined):AID1545, AID1574]
# T5 sequence (O15305 whole entry): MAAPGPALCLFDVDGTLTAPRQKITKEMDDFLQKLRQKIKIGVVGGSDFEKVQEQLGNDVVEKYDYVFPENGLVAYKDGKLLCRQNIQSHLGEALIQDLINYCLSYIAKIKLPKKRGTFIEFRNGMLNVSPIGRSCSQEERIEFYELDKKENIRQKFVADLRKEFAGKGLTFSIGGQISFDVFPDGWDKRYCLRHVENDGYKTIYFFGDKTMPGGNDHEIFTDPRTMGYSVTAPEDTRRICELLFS
# [12] = molecular target: T6, Short transient receptor potential channel 4 (Mus musculus, UniProt Q9QUQ5); assay: TRPC4 positive allosteric modulators, dose response, cell-based, HEK293 TRPC4/mu-opioid, Fluo-4 calcium, EC20 DAMGO (AID 434941); assay type: functional
# T6 sequence (Q9QUQ5 whole entry): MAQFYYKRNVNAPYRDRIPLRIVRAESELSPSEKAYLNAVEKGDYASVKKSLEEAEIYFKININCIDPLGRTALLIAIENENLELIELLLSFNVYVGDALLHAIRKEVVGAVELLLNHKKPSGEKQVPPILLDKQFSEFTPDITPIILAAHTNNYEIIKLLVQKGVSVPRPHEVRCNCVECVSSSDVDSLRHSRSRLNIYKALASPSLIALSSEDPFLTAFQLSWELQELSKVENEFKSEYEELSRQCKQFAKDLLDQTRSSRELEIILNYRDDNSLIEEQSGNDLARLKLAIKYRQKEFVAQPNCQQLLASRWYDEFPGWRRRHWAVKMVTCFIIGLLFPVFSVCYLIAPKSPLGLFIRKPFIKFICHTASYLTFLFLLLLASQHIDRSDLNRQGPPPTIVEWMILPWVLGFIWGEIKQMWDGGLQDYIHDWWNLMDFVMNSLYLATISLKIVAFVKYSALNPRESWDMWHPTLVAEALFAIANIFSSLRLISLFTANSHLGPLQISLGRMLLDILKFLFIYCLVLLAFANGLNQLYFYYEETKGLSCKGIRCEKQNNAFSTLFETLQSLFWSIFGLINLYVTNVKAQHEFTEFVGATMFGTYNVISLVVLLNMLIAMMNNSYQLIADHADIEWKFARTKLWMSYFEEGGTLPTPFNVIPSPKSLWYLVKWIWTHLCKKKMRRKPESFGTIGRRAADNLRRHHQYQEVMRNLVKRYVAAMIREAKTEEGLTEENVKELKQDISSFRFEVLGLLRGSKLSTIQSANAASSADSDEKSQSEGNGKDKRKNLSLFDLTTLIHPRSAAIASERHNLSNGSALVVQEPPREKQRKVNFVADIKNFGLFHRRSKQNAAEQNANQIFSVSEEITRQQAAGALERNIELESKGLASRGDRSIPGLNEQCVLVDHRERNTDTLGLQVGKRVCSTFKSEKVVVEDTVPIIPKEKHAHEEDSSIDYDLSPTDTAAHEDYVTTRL
# Sequence of G-protein coupled receptor 55 (Q9Y2T6 whole entry): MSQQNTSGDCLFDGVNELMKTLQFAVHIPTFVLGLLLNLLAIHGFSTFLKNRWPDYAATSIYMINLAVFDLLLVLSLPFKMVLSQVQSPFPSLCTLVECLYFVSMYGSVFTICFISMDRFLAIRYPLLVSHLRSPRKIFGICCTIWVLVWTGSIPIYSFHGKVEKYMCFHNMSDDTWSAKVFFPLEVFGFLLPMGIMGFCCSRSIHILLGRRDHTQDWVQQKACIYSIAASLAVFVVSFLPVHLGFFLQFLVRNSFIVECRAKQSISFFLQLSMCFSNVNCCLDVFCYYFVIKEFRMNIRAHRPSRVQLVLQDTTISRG
# Sequence of Phosphoethanolamine/phosphocholine phosphatase (Q8TCT1 whole entry): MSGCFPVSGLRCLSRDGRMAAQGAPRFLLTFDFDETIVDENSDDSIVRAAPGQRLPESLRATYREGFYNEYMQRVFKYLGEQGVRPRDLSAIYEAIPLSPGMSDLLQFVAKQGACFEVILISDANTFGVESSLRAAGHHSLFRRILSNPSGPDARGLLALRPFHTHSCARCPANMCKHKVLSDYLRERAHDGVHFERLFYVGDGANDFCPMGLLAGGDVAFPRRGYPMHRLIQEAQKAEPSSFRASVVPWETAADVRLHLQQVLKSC
# Sequence of Keap1/Nrf2 (Q16236 whole entry): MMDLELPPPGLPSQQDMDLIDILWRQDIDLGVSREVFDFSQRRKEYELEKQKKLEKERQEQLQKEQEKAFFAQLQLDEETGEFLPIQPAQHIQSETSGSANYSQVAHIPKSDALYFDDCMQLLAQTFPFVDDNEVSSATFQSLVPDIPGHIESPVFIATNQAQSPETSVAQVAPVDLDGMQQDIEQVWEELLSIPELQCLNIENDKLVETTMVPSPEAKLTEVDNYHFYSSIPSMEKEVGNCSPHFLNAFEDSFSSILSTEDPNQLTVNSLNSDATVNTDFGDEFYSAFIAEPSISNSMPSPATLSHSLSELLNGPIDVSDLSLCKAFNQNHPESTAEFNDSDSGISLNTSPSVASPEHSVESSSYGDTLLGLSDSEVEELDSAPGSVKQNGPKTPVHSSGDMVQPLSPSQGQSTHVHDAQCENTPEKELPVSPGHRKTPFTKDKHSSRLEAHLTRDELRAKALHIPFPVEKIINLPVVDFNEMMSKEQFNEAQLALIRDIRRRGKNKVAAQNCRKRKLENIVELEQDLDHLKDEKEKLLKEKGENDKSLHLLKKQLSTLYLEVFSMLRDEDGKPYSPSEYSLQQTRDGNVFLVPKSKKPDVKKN
# Sequence of Keap1/Nrf2 (Q14145 whole entry): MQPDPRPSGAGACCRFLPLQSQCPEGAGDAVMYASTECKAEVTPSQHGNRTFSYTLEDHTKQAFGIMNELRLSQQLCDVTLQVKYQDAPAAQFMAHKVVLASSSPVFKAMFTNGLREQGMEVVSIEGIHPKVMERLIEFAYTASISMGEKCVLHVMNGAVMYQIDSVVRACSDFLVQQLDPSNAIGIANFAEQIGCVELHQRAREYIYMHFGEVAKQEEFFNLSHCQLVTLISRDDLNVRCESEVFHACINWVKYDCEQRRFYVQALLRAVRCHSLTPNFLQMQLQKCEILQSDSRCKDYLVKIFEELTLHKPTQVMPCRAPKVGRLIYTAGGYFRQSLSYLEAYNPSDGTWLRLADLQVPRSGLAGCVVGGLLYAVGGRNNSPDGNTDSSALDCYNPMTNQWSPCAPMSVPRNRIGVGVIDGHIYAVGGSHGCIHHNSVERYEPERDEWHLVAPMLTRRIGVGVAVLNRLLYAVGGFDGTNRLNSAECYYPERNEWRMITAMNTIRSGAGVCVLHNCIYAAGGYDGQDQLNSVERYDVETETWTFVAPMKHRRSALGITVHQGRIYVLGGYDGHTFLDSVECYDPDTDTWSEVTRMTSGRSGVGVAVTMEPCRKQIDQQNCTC
# Sequence of UDP-galactopyranose mutase (P9WIQ1 whole entry): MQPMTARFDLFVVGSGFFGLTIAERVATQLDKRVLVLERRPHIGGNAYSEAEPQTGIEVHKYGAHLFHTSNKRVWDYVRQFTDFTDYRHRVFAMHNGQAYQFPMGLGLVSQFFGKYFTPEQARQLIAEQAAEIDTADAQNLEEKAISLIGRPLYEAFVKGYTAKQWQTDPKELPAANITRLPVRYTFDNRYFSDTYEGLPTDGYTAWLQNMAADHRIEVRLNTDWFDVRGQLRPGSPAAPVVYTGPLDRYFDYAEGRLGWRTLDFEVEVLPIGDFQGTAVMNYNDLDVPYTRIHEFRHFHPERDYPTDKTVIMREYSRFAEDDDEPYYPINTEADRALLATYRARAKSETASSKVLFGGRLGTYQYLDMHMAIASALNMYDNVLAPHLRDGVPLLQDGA
compound,measurement,setting,value
O=C(c1ccncc1)N(c1ccc2oc3c(c2c1)CCCC3)S(=O)(=O)c1ccc(F)cc1,EC50,[1],6.22 µM (active)
same,EC50,[2],> 32 µM (inactive)
same,AC50,[3],2.09 µM (active)
Cc1cc2nc3c(O)nc(S)nc3nc2cc1NC(=O)C(F)(F)F,AC50,[4],19.6 µM (active)
same,EC50,[5],> 99 µM (inactive)
same,AC50,[6],> 52 µM (inactive)
same,EC50,[7],> 99 µM (inactive)
same,AC50,[8],40.6 µM (active)
same,AC50,[9],86.4 µM (active)
CN(C)c1cccc(-n2sc3ccccc3c2=O)c1,IC50,[10],52.9 µM (inactive)
same,IC50,[11],85.2 µM (active)
O=C(c1cccc([N+](=O)[O-])c1)N1CCCC(C(=O)N2CCCCCC2)C1 (configuration not stated),EC50,[12],0.33 µM (active)
